Results on 2 compounds are retold here after patent publication US6541020B1, “Methods and compositions for administration of therapeutic reagents” (Trimeris, Inc., priority 1999, dated 2003).

Series [1] can be described thus: Pharmacokinetic study of T1249 in hydrogel composition or aqueous solution, subcutaneous injection, blood plasma levels. Format: in vivo, Sprague-Dawley rats. To be noted: s.c.; for PTF / AUC(0-inf) / Cmax / Tmax / AUC(0-t) / half-life: approximately 1.25 mg/kg, rat plasma; for AUC(0-inf) / Cmax / Tmax / AUC(0-t) / half-life: Sprague-Dawley, rat, plasma, sc, 1.25 mg/kg; for AUC(0-t): read-out: AUC(0-12); for half-life: read-out: t1/2,terminal (converted). As to the method: (§1) Pharmacokinetic parameters were calculated from the data as follows: The terminal elimination phase half (t½, terminal) was calculated using the equation 0.693/k, where k equals the terminal elimination rate constant and is determined from a log/linear regression of at least three data points from the plasma concentration-time curve. Cmax was defined as the highest observed concentration between 0 and 12 hours postdose, and tmax is the collection time corresponding to Cmax. The area under the plasma concentration-time curve from 0 to 12 hours postdose (AUC(0-12) was calculated using the trapezoidal rule. AUC(0-∞) was calculated using the trapezoidal rule and extrapolated to infinity by dividing the last plasma concentration by the terminal elimination rate constant (k). PTF values (peak-trough fluctuations) were calculated using the equation (Cmax-Cmin)/Cav. Cmin was defined as the concentration of T20 at 12 hours postdose, and Cav was calculated using the equation AUC(0-12)/12.
Carrier hydrogel compositions containing T1249 were prepared in both a hydrogel and aqueous compositions. A hydrogel composition was prepared by adding 12.5 mg of lyophilized T1249 to 1 mL of the F5 hydrogel formulation described above in Section 6. A pharmaceutical composition of T1249 in aqueous solution was also prepared by combining lyophilized T1249 (12.5 mg) to 2 mL of water for injection (USP). The contained 12.5 mg of T1249, 25 mg mannitol and sodium hydroxide/hydrochloric acid to adjust the pH to 6.5.
The T1249 carrier hydrogel composition were administered to Sprague-Dawley rats according to the protocol described in Section 7.1, above, for T20. The rats were divided randomly into two groups (Groups I and II). The rats in Group I were each administered the above-described hydrogel compositions containing T1249. The rats in Group II were each administered the above-described composition of T1249 in aqueous buffer as a control. Blood plasma levels of T1249 were measured from samples collected from the animals immediately after (0 hours) and 1, 2, 4, 8, 12, 24, 36 and 48 hours post-dosing.
Pharmacokinetic parameters were calculated from the data as described in Section 7.1, above.

Series [2] is described as follows: Pharmacokinetic study of T20 in hydrogel compositions or aqueous solution, single subcutaneous bolus injection, blood plasma levels. Format: in vivo, Sprague-Dawley rats. To be noted: for Tmax / half-life / AUC(0-inf) / Cmax / AUC(0-t): male, Sprague-Dawley, sc; for AUC(0-t): read-out: AUC(0-12). As for the experimental part: Pharmacokinetic studies were performed on 16 cannulated male Sprague-Dawley rats having an average weight of 0.230 kg (StdDev=0.008 kg). Specifically, the rats were divided randomly into four groups (Groups I-IV). The rats in Group I were each administered T20 at a concentration of 50 mg/mL in a higher viscosity gel system (i.e., of the F2-50 pharmaceutical composition described in Section 6.1, supra. The rats in Group II were each administered T20 at a concentration of 25 mg/mL in a higher viscosity gel system (i.e., of the F2-25 pharmaceutical composition described in Section 6.1, supra). The rats in Group III were each administered T20 at a concentration of 25 mg/mL in a lower viscosity gel system (i.e., of the F5-25 pharmaceutical composition described in Section 6.1, supra). The rats in Group IV were administered T20 at a concentration of 25 mg/mL in an aqueous buffer (i.e., the WI-25 pharmaceutical composition described supra) as a control. The rats in all of the groups received the T20 via a single subcutaneous bolus injection of 25 μL of the formulation on the right side of the abdomen through a 30G½ Gauge needle. Each group received a dose level of approximately 5 mg/kg (Group I) or 2.5 mg/kg (Groups II-IV). More specifically, the dosages received by the animals in Groups I-IV were 6.71 mg/kg, 2.90 mg/kg, 3.27 mg/kg and 2.78 mg/kg, respectfully. These dosages were selected to approximate the dose levels, on a mg/cm^2 basis, to be used in humans.
Blood plasma levels of T20 were measured from samples collected from the animals immediately after (0 hours) and 1, 2, 4, 8, 12, and 24 hours post-dosing.
as §1

Where [3] appears, read: Group I: 12.5 mg/mL T1249 in low viscosity hydrogel (F5).
The mark [4] stands for this setting: Group II: 12.5 mg/mL T1249 in aqueous buffer (control).
[5] abbreviates: T20 as a subcutaneous injection of a hydrogel.
[6] abbreviates: 2.9 mg/kg, Group II: F2-25, 25 mg/mL T20 in high viscosity hydrogel, single s.c. bolus 25 μL, 2.90 mg/kg, rat plasma.
Setting [7] is: Group I: F2-50, 50 mg/mL T20 in high viscosity hydrogel, single s.c. bolus 25 μL, 6.71 mg/kg, rat plasma.
The mark [8] stands for this setting: Group III: F5-25, 25 mg/mL T20 in lower viscosity hydrogel, single s.c. bolus 25 μL, 3.27 mg/kg, rat plasma.
Setting [9] is: Group IV: WI-25, 25 mg/mL T20 in aqueous buffer (control), single s.c. bolus 25 μL, 2.78 mg/kg, rat plasma.

What is called AUC(0-inf) is total exposure, with the tail of the curve extrapolated. By Cmax is commonly meant the peak of the concentration-time curve. In general, Tmax refers to the time from dosing to the highest level. On to `CC[C@H](C)[C@H](NC(=O)[C@H](CCC(N)=O)NC(=O)[C@H](C)NC(=O)[C@H](CCC(N)=O)NC(=O)[C@H](CCC(=O)O)NC(=O)[C@H](CC(C)C)NC(=O)[C@H](CC(C)C)NC(=O)[C@H](C)NC(=O)[C@@H](NC(=O)[C@@H](NC(=O)[C@H](CCCCN)NC(=O)[C@H](CCC(N)=O)NC(=O)[C@H](CCC(=O)O)NC(=O)[C@H](Cc1c[nH]c2ccccc12)NC(=O)[C@H](CCC(=O)O)NC(=O)[C@H](CCC(N)=O)NC(=O)[C@H](Cc1c[nH]c2ccccc12)NC(C)=O)[C@@H](C)CC)[C@@H](C)O)C(=O)N[C@@H](CCC(N)=O)C(=O)N[C@@H](CCC(N)=O)C(=O)N[C@@H](CCC(=O)O)C(=O)N[C@@H](CCCCN)C(=O)N[C@@H](CC(N)=O)C(=O)N[C@@H](CCC(=O)O)C(=O)N[C@@H](Cc1ccc(O)cc1)C(=O)N[C@@H](CCC(=O)O)C(=O)N[C@@H](CC(C)C)C(=O)N[C@@H](CCC(N)=O)C(=O)N[C@@H](CCCCN)C(=O)N[C@@H](CC(C)C)C(=O)N[C@@H](CC(=O)O)C(=O)N[C@@H](CCCCN)C(=O)N[C@@H](Cc1c[nH]c2ccccc12)C(=O)N[C@@H](C)C(=O)N[C@@H](CO)C(=O)N[C@@H](CC(C)C)C(=O)N[C@@H](Cc1c[nH]c2ccccc12)C(=O)N[C@@H](CCC(=O)O)C(=O)N[C@@H](Cc1c[nH]c2ccccc12)C(=O)N[C@@H](Cc1ccccc1)C(N)=O` [T1249], for which, in series [1] (setting [3]), the PTF turned out to be 1.62 ± 0.086, the AUC(0-inf) came to 29100 ± 5200 ng·h/mL, the Cmax was 1900 ± 334 ng/mL and the Tmax amounted to 8 h. Further, in series [1] (setting [3]), the AUC(0-t) was found to be 28200 ± 5640 ng·h/mL and the half-life was 3.37 ± 0.68 h. For the same compound, in series [1] (setting [4]), the PTF came out at 4.44 ± 0.680, the AUC(0-inf) stood at 18400 ± 4070 ng·h/mL, the highest level (Cmax) was 3320 ± 215 ng/mL and the Tmax turned out to be 2 h. Further, in series [1] (setting [4]), the AUC(0-t) was 18300 ± 4060 ng·h/mL and the half-life was 2.28 ± 0.122 h. In addition, the “pharmacokinetic properties, hydrogel versus aqueous solution” value in series [1] (T1249 administered in a hydrogel composition) was “improved pharmacokinetic properties”.

Regarding enfuvirtide, the “T20 plasma concentration levels within 12 hours” value is reported as “remained elevated” in series [2] (T20 administered by a hydrogel, s.c.) and “already cleared the blood stream” in series [2] (T20 administered in an aqueous solution, s.c.). Besides, the “change of bioavailability, hydrogel versus aqueous solution” value in series [2] (setting [5]) was “approximately doubling”. Also, in series [2] (setting [5]), the “change of half-life, hydrogel versus aqueous solution” value is listed as “approximately doubling”. Besides, the “dose proportionality of pharmacokinetics (AUC, t½)” value in series [2] (high viscosity hydrogel formulation of T20, s.c., both dose levels) is reported as “linearity of pharmacokinetics within the dose range tested”. Besides, the Tmax in series [2] (rat, plasma, 2.78 mg/kg, Group IV: WI-25, 25 mg/mL T20 in aqueous buffer (control), single s.c. bolus 25 μL, 2.78 mg/kg, rat plasma) is ~2 h; in series [2] (rat, plasma, 2.9 mg/kg, Group II: F2-25, 25 mg/mL T20 in high viscosity hydrogel, single s.c. bolus 25 μL, 2.90 mg/kg, rat plasma) it was 4 h; in series [2] (rat, plasma, 3.27 mg/kg, Group III: F5-25, 25 mg/mL T20 in lower viscosity hydrogel, single s.c. bolus 25 μL, 3.27 mg/kg, rat plasma), 4 h. The half-life was 4.27 to 4.75 h in series [2] (rat, plasma, T20 administered in a hydrogel, s.c., depending on the exact hydrogel formulation and T20 dosage, read-out: group mean half-life values); 4.27 ± 0.159 h in series [2] (2.9 mg/kg, Group II: F2-25, 25 mg/mL T20 in high viscosity hydrogel, single s.c. bolus 25 μL, 2.90 mg/kg, rat plasma, read-out: t1/2,terminal (converted)); 4.75 ± 0.285 h in series [2] (Group I: F2-50, 50 mg/mL T20 in high viscosity hydrogel, single s.c. bolus 25 μL, 6.71 mg/kg, rat plasma, read-out: t1/2,terminal (converted)); 4.61 ± 0.618 h in series [2] (Group III: F5-25, 25 mg/mL T20 in lower viscosity hydrogel, single s.c. bolus 25 μL, 3.27 mg/kg, rat plasma, read-out: t1/2,terminal (converted)); 2.19 h in series [2] (Group IV: WI-25, 25 mg/mL T20 in aqueous buffer (control), single s.c. bolus 25 μL, 2.78 mg/kg, rat plasma, read-out: t1/2,terminal (converted)). For the same compound, the AUC(0-inf) in series [2] (setting [6]) turned out to be 24800 ± 4860 ng·h/mL; in series [2] (setting [7]), 55400 ± 9150 ng·h/mL; in series [2] (setting [8]), 32800 ± 9710 ng·h/mL; in series [2] (setting [9]), 6080 ± 1610 ng·h/mL. Besides, the Cmax worked out at 2830 ± 316 ng/mL in series [2] (setting [6]), 5970 ± 499 ng/mL in series [2] (setting [7]), 3780 ± 751 ng/mL in series [2] (setting [8]) and 1550 ± 640 ng/mL in series [2] (setting [9]). Moreover, the AUC(0-t) is 19600 ± 3450 ng·h/mL in series [2] (setting [6]), 43400 ± 4480 ng·h/mL in series [2] (setting [7]), 25700 ± 6140 ng·h/mL in series [2] (setting [8]) and 5870 ± 1690 ng·h/mL in series [2] (setting [9]).
